Experimental findings from patent US20250268854A1, “2-AMINO-5,5-DIMETHYLHEXANOIC ACID DERIVATIVES AS SORTILIN MODULATORS FOR USE IN THE TREATMENT OF DISEASE OF THE CENTRAL NERVOUS SYSTEM” (c/o Vesper Bio ApS, priority 2021, published 2025) are described below.

Series [1] is described as follows: in vivo. The following applies: mouse, Kpuu.
Method: (§12) Separately, the fraction of compound bound to plasma protein or brain homogenate was measured to allow assessment of free fractions.
(§13) In practice, unbound fractions in plasma and brain tissue were assessed using rapid equilibrium dialysis in vitro. Separately a pharmacokinetic study was run in vivo whereby a dose of the compound of interest was given at T=0 hours and at subsequent timepoints (eg 0.5, 1 and 4 hours) plasma and separately brain samples were analysed for total concentration of the compound of interest. These total concentrations could then be adjusted with the unbound fraction to give the unbound concentrations in the plasma and brain. The unbound partition coefficient (Kpuu) was then determined as a ratio between the free compound concentrations in the compartment of interest, here the brain/CNS and the plasma.
(§14) The compound is administered to the animal in a suitable vehicle at T=0 hours. At one hour post administration plasma and separately brain are removed, prepared and analysed for total compound concentration.
(§15) Mouse brain samples were prepared for analysis by homogenization with Omni bead ruptor, using 4-fold volume of 150 mM phosphate buffered saline (PBS) (E.g. 400 uL PBS+100 mg brain). After homogenization, a 30 μL homogenate sample was mixed with 60 μL of internal standard solution (100 ng/ml of repaglinide and phenacetin in acetonitrile (ACN) containing 1% formic acid) and mixed. Samples were centrifuged for 20 minutes (4000 rpm, Thermo Scientific SL16) and 50 μl of supernatant, together with 100 μl of 50% acetonitrile was transferred on an analytical plate. Standard samples were prepared by spiking blank brain homogenate to obtain concentrations from 0.1 to 10 000 ng/ml in brain homogenate by using one volume of spiking solution and nine volumes of blank homogenate. Quality control (QC) samples were prepared for concentrations at 3, 30, 300 and 3000 ng/ml by using one volume of spiking solution and nine volumes of blank brain homogenate. The standards and QCs were then prepared for analysis similarly as the samples. Blank brain matrix was collected in-house from CD-1 mice.
(§16) The samples were prepared by mixing 30 μL of plasma sample with 60 μL of internal standard solution (100 ng/ml of repaglinide and phenacetin in ACN with 1% of formic acid) and mixed. Samples were centrifuged for 20 minutes (4000 rpm, Thermo Scientific SL16) and 50 μl of supernatant, together with 100 μl of 50% acetonitrile was transferred on analytical plate. 10 μl of diluted samples were transferred on analytical plate and further diluted with 190 μl of 50% acetonitrile. Standard samples were prepared by spiking blank plasma to obtain concentrations from 0.1 to 10 000 ng/ml in plasma by using one volume of spiking solution and nine volumes of blank plasma. Quality control (QC) samples were prepared for concentrations at 3, 30, 300 and 3000 ng/ml by using one volume of spiking solution and nine volumes of plasma. The standards and QCs were then prepared for analysis similarly as the samples. Blank plasma was collected in-house from CD-1 mice.
(§17) Instrumentation: Waters Acquity UPLC+Waters TQ-S triple quadrupole MS; Column: Waters Acquity HSS T3 (2.1×50 mm, 1.8 μm) column with pre-column filter; Gradient Elution; A=0.1% Formic acid, B=Acetonitrile
Series [2] in a line: Blood-brain-barrier permeability of study compounds in mice after PO administration. Conditions: mouse; for concentration at 1 h: po, T = 1 hour; for blood brain barrier penetration: conclusion in words.
Method: as §12, §13, §14, §15, §16, §17
In series [3] the target is h-Sortilin (Homo sapiens (Human), UniProt Q99523). Description: Neurotensin (NTS) scintillation proximity assay (SPA): displacement of [3H]-neurotensin binding. The following applies: 150 nM 6his-Sortilin, 5 nM [3H]-Neurotensin; average of at least 2 determinations. Summed up: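 Scintillation proximity format measuring displacement of [3H]-neurotensin from human sortilin. IC50 by nonlinear variable-slope sigmoid regression, averaged over at least 2 determinations.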
Sequence of h-Sortilin (Q99523 78-831): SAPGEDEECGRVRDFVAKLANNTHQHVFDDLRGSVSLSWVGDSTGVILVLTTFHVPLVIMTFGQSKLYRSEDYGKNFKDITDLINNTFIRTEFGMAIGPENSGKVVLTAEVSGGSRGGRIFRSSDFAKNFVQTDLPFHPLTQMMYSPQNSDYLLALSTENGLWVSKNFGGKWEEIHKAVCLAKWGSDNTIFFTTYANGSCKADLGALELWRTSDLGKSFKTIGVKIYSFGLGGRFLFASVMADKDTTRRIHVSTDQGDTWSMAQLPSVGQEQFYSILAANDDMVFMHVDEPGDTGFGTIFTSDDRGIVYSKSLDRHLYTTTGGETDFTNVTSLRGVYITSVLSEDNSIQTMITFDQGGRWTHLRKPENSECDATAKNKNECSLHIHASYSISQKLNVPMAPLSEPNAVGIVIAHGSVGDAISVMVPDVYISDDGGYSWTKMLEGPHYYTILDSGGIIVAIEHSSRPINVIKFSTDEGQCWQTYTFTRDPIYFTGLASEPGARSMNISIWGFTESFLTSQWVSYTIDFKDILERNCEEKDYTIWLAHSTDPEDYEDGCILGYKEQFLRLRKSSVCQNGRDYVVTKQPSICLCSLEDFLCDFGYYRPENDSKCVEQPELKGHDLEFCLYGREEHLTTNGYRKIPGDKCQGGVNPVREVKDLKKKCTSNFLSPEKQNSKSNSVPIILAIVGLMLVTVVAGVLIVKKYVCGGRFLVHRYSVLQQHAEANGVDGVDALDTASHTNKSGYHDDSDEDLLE

Series [4] can be described thus: Plasma protein binding by rapid equilibrium dialysis. The following applies: 37° C. Format: in vitro ADME. The method, then:
(§1) Rapid Equilibrium Dialysis The test compounds were incubated in CD1-mouse plasma and brain homogenate at 37° C. in RED device with inserts (8K MWCO, Thermo scientific) for 4 hours at 5 μM in triplicates. 350 μL of 150 mM phosphate buffered saline (PBS, pH 7.4) was used as the receiver side solutions. The samples were collected from both sides after 4 hours equilibration time and their matrices were made similar by diluting the donor side sample using blank PBS, and by diluting the receiver side sample using blank plasma/phosphate buffered saline. After the incubation, aliquots of donor side matrixes were diluted with an equal volume of the blank receiver side matrix and aliquots of receiver side matrixes were diluted with an equal volume of blank donor side matrix. All samples were protein precipitated by addition of a two-fold volume of acetonitrile containing 100 nM of repaglinide as an internal standard. After 10-minute centrifugation at 13 200 rpm, the sample supernatants were analysed with an LC-MS/MS, to obtain the unbound fraction of the test compound (Fub). The unbound fraction was calculated from the peak area ratios obtained for each matrix: […]
where CPBS and Cplasma are the analyte concentrations in PBS (receiver) and plasma (donor), respectively.
(§2) Recovery samples were prepared in each condition but without dialysis, and were used for evaluation of recovery from the dialysis experiment using following formula: […]
(§3) where VPBS is the volume on the receiver side (PBS) and Vplasma is the volume on donor side (plasma) of the dialysis device. Crecovery is the analyte concentration measured from the recovery sample.
(§4) Propranolol (1 μM) and fluoxetine (5 μM) were included in the experiment as a control compounds.

A short description of series [5]: Brain homogenate binding by rapid equilibrium dialysis. Type of series: in vitro ADME. Conditions: 37° C. The method, then: as §1, §2, §3, §4
The unbound fraction in brain (Fub, brain) was calculated from the measured value in brain homogenate (Fub, meas), taking into account the dilution factor used in preparing the brain homogenate:
where D=dilution factor (here 5).

The target in series [6] is human Sortilin (Homo sapiens (Human), UniProt Q99523). Description: Creoptix (GCI) binding kinetics, human Sortilin. The following applies: screened at 1 μM. The method, then: (§5) A protein, bound to a surface, is bathed in a solution containing potential ligands giving rise to binding kinetics to generate Kon and Koff rates, as well as a Kd.
Sequence of human Sortilin (Q99523 78-755): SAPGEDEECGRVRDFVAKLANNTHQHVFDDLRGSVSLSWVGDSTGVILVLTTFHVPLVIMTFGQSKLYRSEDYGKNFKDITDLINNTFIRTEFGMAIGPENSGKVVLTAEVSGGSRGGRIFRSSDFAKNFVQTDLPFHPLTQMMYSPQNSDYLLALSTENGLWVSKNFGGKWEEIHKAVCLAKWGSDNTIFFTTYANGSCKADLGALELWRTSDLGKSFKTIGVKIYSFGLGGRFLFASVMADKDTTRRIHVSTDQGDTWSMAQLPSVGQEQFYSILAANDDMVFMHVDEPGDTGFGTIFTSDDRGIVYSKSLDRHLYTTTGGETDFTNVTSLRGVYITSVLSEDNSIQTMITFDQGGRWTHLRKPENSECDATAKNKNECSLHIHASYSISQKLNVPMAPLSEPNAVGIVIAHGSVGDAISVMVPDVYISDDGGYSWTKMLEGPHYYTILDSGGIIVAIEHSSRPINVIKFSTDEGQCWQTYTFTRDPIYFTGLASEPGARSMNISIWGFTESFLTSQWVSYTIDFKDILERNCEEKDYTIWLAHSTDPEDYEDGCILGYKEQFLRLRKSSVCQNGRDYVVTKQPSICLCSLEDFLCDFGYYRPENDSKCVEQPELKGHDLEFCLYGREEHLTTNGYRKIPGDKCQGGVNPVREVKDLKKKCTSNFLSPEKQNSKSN
(§6) All buffers described were filtered using a 0.2 μm filter (Product number: 10300461, Nalgene) and degassed for 15 minutes prior to use.
(§7) A flow cell temperature of 25 degrees Celsius was used throughout the experiment.
(§8) A 4PCH chip was conditioned across all flow cells using 0.2× concentration running buffer (running buffer composition: 1×HBS-N, pH 7.4, 3.4 mM EDTA, 1% DMSO) using pre-set conditioning wizard (WAVE control software) injecting: 0.1 M borate, 1 M NaCl (pH 9) followed by three start-up injections of 0.2× running buffer.
(§9) A buffer exchange was performed and 1× running buffer (1×HBS-N, pH 7.4, 3.4 mM EDTA, 1% DMSO) used during the immobilisation procedure:
(§10) An initial injection of EDC/NHS (mixed in 1:1 ratio) was performed across all 4-flow cells to activate the surface for amine coupling of ligands.
Recombinant Sortilin aliquots were thawed quickly by hand and centrifuged at 13,300 rpm for 10 minutes. A 10 μg/ml protein solution was then made in pH 5.0 acetate and injected once for 20 minutes over flow-cells 2, 3 and 4 for human, human (flow cells 2 & 3), and mouse Sortilin respectively followed by a 60 second dissociation period.
A final 7-minute passivation injection of 50 mM tris was used across all flow cells.
A flow rate of 10 μl/min was used for all conditioning and immobilisation cycles.
Compounds were screened at 1 μM using the in-built ‘intermediate binders’ settings: 100 ul/min, 45 s baseline, 25 s association, 300 s dissociation, with blanks every 5th sample and a DMSO correction (1.5% DMSO at the start and end of the experiment as well as every 20 cycles. An acquisition rate of 10 Hz was used throughout the experiment.
Compounds were screened at a final assay concentration of 1 μM and a final DMSO concentration was 1%. To achieve this, compounds were diluted in DMSO from 10 mM stocks to 100 μM (100×final assay concentration) then diluted 1:100 in running buffer which contained no DMSO to establish a final assay concentration of compound of 1 μM and a final DMSO concentration of 1% [DMSO].
Compounds and DMSO were mixed by plate shaking at 1000 rpm for 60 seconds using a Bioshake instrument.
A flow rate of 100 μl/min was used throughout the experiment.
(§11) Data was evaluated using the RAPID kinetic analysis tool in the GCI WAVE_control software with data fitted using a standard 1:1 kinetic BioModel.

The target in series [7] is mouse Sortilin (Mus musculus (Mouse), UniProt Q6PHU5). Nature of the series: Creoptix (GCI) binding kinetics, mouse Sortilin. The following applies: screened at 1 μM. As to the method:
as §5, §6, §7, §8, §9, §10
Recombinant Sortilin aliquots were thawed quickly by hand and centrifuged at 13,300 rpm for 10 minutes. […]
as §11

[8] abbreviates: brain, Brain Tissue Concentration (ng/g) T = 1 hour.
The mark [9] stands for this setting: brain, Unbound Brain Concentration (ng/mL) T = 1 hour.
Setting [10] is: plasma, Total Plasma Concentration (ng/ml) T = 1 hour.
Setting [11] is: plasma, Unbound Plasma Concentration (ng/mL) T = 1 hour.

Structures are written as SMILES.

Sequence of mouse Sortilin (Q6PHU5 76-753): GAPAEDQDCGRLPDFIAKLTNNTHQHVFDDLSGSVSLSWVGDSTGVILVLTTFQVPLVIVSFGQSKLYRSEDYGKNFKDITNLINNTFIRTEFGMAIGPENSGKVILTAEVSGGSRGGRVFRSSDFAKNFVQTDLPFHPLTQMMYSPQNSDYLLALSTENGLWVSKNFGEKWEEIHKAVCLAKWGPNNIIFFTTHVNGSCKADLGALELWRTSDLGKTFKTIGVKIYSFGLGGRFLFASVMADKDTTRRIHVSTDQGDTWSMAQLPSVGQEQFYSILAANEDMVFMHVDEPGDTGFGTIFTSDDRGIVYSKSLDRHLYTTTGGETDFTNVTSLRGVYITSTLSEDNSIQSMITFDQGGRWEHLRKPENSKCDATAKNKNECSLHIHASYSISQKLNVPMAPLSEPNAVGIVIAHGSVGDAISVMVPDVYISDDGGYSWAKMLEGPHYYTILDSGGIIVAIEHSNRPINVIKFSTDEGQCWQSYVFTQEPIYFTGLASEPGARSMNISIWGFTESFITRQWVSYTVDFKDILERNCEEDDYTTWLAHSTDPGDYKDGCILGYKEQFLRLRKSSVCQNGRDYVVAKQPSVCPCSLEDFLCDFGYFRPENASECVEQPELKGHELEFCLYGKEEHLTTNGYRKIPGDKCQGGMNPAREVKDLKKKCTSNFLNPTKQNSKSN

Regarding `Cc1cccc(NC(=O)c2ccc(C(F)(F)F)cc2C(=O)O)n1` [Comparative Example 1, reference compound], the Kp uu at 1 h in series [1] was < 0.1. Besides, the concentration at 1 h in series [2] (setting [8]) is 0.9 ng/g; in series [2] (setting [9]), 0.2 ng/mL; in series [2] (setting [10]) it was 393 ng/mL; in series [2] (setting [11]), 27 ng/mL. In addition, in series [2], the “blood brain barrier penetration” value was “did not show a blood brain barrier penetration”.

Turning to `COc1cccc(CN[C@@H](CCC(C)(C)C)C(=O)O)c1.Cl` [Example 5, (2S)-2-{[(3-methoxyphenyl)methyl]amino}-5,5-dimethylhexanoic acid], the IC50 in series [3] came to 560 nM. Moreover, the “Mouse Plasma Unbound (Fu, %)” value in series [4] (CD1-mouse plasma, 5 μM, 4 hours) was found to be 3.3%. Further, the fraction unbound at 4 h, 5 μM in series [4] (pH 7.4, CD1-mouse plasma, read-out: Mouse Plasma Unbound (Fu, %)) was 0.033; in series [5] (CD1, pH 7.4, mouse brain homogenate, dilution factor 5, read-out: Mouse Brain Unbound (Fu, %)), 0.291. Moreover, the “Mouse Brain Unbound (Fu, %)” value in series [5] (5 μM, 4 hours, dilution factor 5) worked out at 29.1%. Also, the Kd in series [6] (Free acid) stood at 1930 nM; in series [6] (Ms salt), 423 nM; in series [6] (MsOH salt) it was 396 nM; in series [7] (HCl salt), 1020 nM. Moreover, in series [2] (brain and plasma (unbound concentrations), oral, Kpuu, ratio of unbound brain to unbound plasma concentration), the Kp uu at 1 h was > 0.1. Besides, the concentration at 1 h is 48.5 ng/g in series [2] (setting [8]), 14 ng/mL in series [2] (setting [9]), 3560 ng/mL in series [2] (setting [10]) and 117 ng/mL in series [2] (setting [11]). In addition, the “blood brain barrier penetration” value in series [2] was “permeate the blood brain barrier”.

Turning to `CC(C)(C)CC[C@H](NCc1cnc2ccccc2c1)C(=O)O` [Example 35, (2S)-5,5-dimethyl-2-{[(quinolin-3-yl)methyl]amino}hexanoic acid], in series [3], the half-inhibitory concentration (IC50) was found to be 650 nM. In addition, the Kd in series [6] (Free acid) stood at 895 nM; in series [7] (Free acid), 1050 nM.
